Data: US11242344B2, “(4-hydroxypyrrolidin-2-yl)-heterocyclic compounds and methods of use thereof” (Genentech, Inc., priority 2017, dated 2022)

Columns and labels:
VHL Elongin B/C complex = VHL Elongin B/C complex (Homo sapiens (Human), UniProt P40337); assay: Fluorescence Polarization (FP) VHL Binding Assay; details: VHL binding, FP assay; geometric mean where more than one measurement
How it was run: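 FP tracer competition using His6-tagged human VHL (E55-D213) co-expressed with Elongin B and C in E. coli, final 2.64 nM, with TAMRA-labelled VHL ligand probe at 1.67 nM final. Buffer 50 mM Tris pH 8.0, 120 mM NaCl, 0.005% NP-40, 1% DMSO; 1 h at room temperature. Pre-assay compound/protein signal subtracted; IC50 from four-parameter fit.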

MYC expression = assay: Inhibition of MYC expression in MV-4-11 cells; assay type: cell-based; details: for IC50: QuantiGene 2.0, geometric mean; for Maximum Inhibition (%): maximum inhibition of MYC expression
Experimental: Pharmacologic inhibition of MYC is achievable through targeting BET bromodomains through small molecule binder or degrader mechanisms. Such inhibitors may have clinical utility given the widespread pathogenetic role of MYC in cancer. See, e.g., Mertz J, et al., “Targeting MYC dependence in cancer by inhibiting BET bromodomains,” (2011) Proc. Natl. Acad. Sci. USA, Vol. 108 (40), pp. 16669-16674.
To determine the inhibition of MYC expression, MV-4-11 cells (ATCC) were plated at 10,000 cells per well in 96-well plates in RPMI1640 media supplemented with 10% fetal bovine serum and 2 mM L-glutamine. Test compounds diluted in DMSO were transferred to the cell plates, keeping final DMSO concentration consistent at 0.1%, and incubated for 4 h at 37° C. Lysis and analysis for MYC expression were carried out using QuantiGene 2.0 reagents (Affymetrix/eBioscience, probe set cat #SA-50182) and following the vendor's instructions. Luminescence was read using an EnVision plate reader (PerkinElmer) and IC50s generated in Genedata Screener using a 4-parameter non-linear regression fit.
Effective degraders will surpass this and inhibit >95% of MYC, thus following the maximum inhibition within this assay provides valuable SAR. Where more than one measurement was performed for the same assay, the value reported is the geometric mean of all values.

BRD4 = BRD4 (Homo sapiens (Human), UniProt O60885); assay: BRD4 degradation assay in EOL-1 cells, high content fluorescence imaging; assay type: cell-based; details: 4 hours; for DC50: BRD4 immunofluorescence, read-out: EOL-1 EC50; for EOL-1 Sinf (%): maximum degradation, percent change in protein level (-100% = complete loss)
Experimental: PC3 (Steap-1) prostate cancer cells: PC3 (Steap-1) prostate cancer cells (PC3 cells overexpressing the surface protein Steap-1) were seeded on day 1 at a density of 200,000 cells/mL in 45 μl/well in cell plates in a 384 well Greiner/Perkin Elmer Cell Carrier TC Treated plate (part #6007430) in Assay Medium (RPMI, 10% FBS, 2 mM Glutamax). Cells were incubated overnight at 37° C. degrees. On day 2, compounds were serially diluted 3-fold in DMSO spanning the concentrations 10 mM to 8.6 nM, in 384 well clear polypropylene plates (Greiner Cat #781201). DMSO and 10 mM of a control PROTAC (dBET1, as described in WO 2017/024317, p. 235, structure below) (control compound) were added to designated wells. Compounds and controls were diluted 50-fold (2 μl of DMSO stock into 98 μl) into Assay Medium. 5 μl of the diluted compounds was transferred to the cell plates. The final top concentration of the test compounds in the cell plates was 20 μM. Cell plates were incubated at 37° C., for 4 hours. Fixation and permeabilization were carried out using a Biotek EL406 plate washer and dispenser as follows. Cells were fixed by addition of 15 μL of 16% paraformaldehyde (Electron Microscopy Sciences #15710-S) directly to the 50 μL cell culture medium in each well using the peristaltic pump 5 μL cassette on a Biotek EL406 (final concentration of formaldehyde was 3.7% w/v). Samples were incubated 30 minutes. Well contents were aspirated and 50 μL/well of Phosphate Buffered Saline (PBS) containing 0.5% w/v bovine serum albumen, 0.5% v/v Triton X-100 (Antibody Dilution Buffer) was added to each well. Samples were incubated for 30 minutes. Well contents were aspirated and washed 3 times with 100 μL/well of PBS.
EOL-1 cells: The BRD4 degradation assay was performed on EOL-1 cells using the same procedure as described above for PC3 (Steap-1) prostate cancer cells, except EOL-1 cells were seeded at 1,000,000 cells/mL. Following aspiration and washing of the well contents with 100 μL/well of PBS, 40 μL PBS plus 10% normal goat serum was added per well for 20 minutes at room temperature.
For both the PC3 and EOL-1 cell assays, immunofluorescence staining of BRD4 was carried out using a Biotek EL406 plate washer and dispenser as follows. The well supernatant was aspirated from the wells and 25 μL/well of rabbit mAb Anti-BRD4 [EPR5150(2)] abeam 128874 diluted 1:500 in Antibody Dilution Buffer is dispensed. Samples were incubated for 2 hours at room temperature. Samples were washed 4 times with 100 μL/well of PBS. 25 μL/well of secondary antibody solution (Goat Anti-Rabbit IgG, DyLight 488 Conjugated Highly Cross-adsorbed #35553 1:1000) diluted 1:1000 and Hoechst 33342 1 μg/ml diluted in Antibody Dilution Buffer) were dispensed into each well. 16 wells of the plate, which were designated as ‘no primary antibody” wells, received only Antibody Dilution Buffer (without anti-BRD4 antibody). Samples were incubated for 2 hours at room temperature. Samples were washed 3 times with 100 μL/well of PBS using a Biotek EL406. Quantitative fluorescence imaging of BRD4 was carried out using a Phenix (Perkin Elmer). Fluorescence images of the samples (Channel 1: Hoechst33342 (DNA stain); Channel 2: 488 nm (BRD4 stain)) were acquired. Channel 1 (DNA stain) was used to define the “Region of Interest” (ROI) nuclear region. Measurements of BRD4 average immunofluorescence intensity within the ROI (nuclear region), were made on a per cell basis and averaged over all the measured cells. Data analysis was carried out using Genedata Screener Software, with DMSO and “no primary antibody” samples being used to define the 0% and 100% changes in BRD4. The “Robust Fit” method was used to define the inflexion point of curve (EC50) and the plateau of the maximal effect (Sinf). The Sinf value reports degradation as percent change in protein level, so complete loss of the protein target is −100%. […]

[1] = biological target: NanoLuc VHL fusion protein (Homo sapiens (Human), UniProt P40337); assay: VHL HEK-293 BRET Assay (NanoBRET Target Engagement); assay type: cell-based; details: geometric mean where more than one measurement
How it was run: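 HEK293 cells stably expressing NanoLuc-VHL, 2 h with compound titration and 1 uM final tracer, then Nano-Glo substrate plus extracellular NanoLuc inhibitor. BRET ratio 610/460 nm, background-corrected with no-tracer wells, normalised to DMSO and 10 uM unlabeled VHL antagonist controls; IC50 by four-parameter fit.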

[2] = biological target: VHL co-expressed with Elongins B and C (Homo sapiens (Human), UniProt P40337); assay: Surface Plasmon Resonance Assay; assay type: binding; details: SPR measured VHL affinity; geometric mean where more than one measurement
How it was run: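 Avidin-tagged VHL co-expressed with Elongins B and C captured on a streptavidin chip. Compounds injected low-to-high concentration at 20 °C and 80 μL/min in 50 mM HEPES pH 7.2, 150 mM NaCl, 0.5 mM TCEP, 0.001% Tween 20, 0.2% PEG3350, 2% DMSO. Kinetic parameters from fits of binding curves.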

Sequence of VHL Elongin B/C complex (P40337 whole entry, looked up): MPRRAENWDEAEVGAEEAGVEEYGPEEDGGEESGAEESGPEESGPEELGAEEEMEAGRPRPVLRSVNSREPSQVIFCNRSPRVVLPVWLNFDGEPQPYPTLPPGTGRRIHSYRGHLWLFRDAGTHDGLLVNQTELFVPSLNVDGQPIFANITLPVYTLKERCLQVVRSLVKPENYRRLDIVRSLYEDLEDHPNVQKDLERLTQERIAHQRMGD
Sequence of VHL Elongin B/C complex (Q15370 whole entry partner, looked up): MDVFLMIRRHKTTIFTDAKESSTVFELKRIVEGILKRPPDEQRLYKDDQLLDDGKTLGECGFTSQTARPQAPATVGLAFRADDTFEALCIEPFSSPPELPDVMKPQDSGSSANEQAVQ
Sequence of VHL Elongin B/C complex (Q15369 whole entry partner, looked up): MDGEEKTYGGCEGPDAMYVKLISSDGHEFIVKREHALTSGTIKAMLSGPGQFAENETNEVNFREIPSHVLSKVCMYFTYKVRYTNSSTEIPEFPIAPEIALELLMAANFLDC
Sequence of NanoLuc VHL fusion protein (P40337 whole entry, looked up, the tested form may be a part): as the sequence (P40337 whole entry, looked up) above
Sequence of NanoLuc VHL fusion protein (Q15370 whole entry partner, looked up, the tested form may be a part): as the sequence (Q15370 whole entry partner, looked up) above
Sequence of NanoLuc VHL fusion protein (Q15369 whole entry partner, looked up, the tested form may be a part): as the sequence (Q15369 whole entry partner, looked up) above
Sequence of VHL co-expressed with Elongins B and C (P40337 whole entry, looked up): as the sequence (P40337 whole entry, looked up) above
Sequence of VHL co-expressed with Elongins B and C (Q15370 whole entry partner, looked up): as the sequence (Q15370 whole entry partner, looked up) above
Sequence of VHL co-expressed with Elongins B and C (Q15369 whole entry partner, looked up): as the sequence (Q15369 whole entry partner, looked up) above

IC50 (VHL Elongin B/C complex) [µM]	IC50 (MYC expression; 4 h) [nM]	DC50 (BRD4) [nM]	SMILES	Maximum Inhibition (%) (MYC expression; 4 h)	further results
> 100	26.1		Cc1ncsc1-c1ccc([C@]2(C)NC(C3C[C@@H](O)CN3C(=O)C(c3cc(OCCCCCNC(=O)c4cc5c(cc4CS(C)(=O)=O)-c4cn(C)c(=O)c6[nH]cc(c46)CN5c4ncc(F)cc4F)no3)C(C)C)=NC2=O)cc1 (single isomer, unassigned) [Example 1001.4]	75.7	
	51.5	> 20000	Cc1ncsc1-c1ccc(C2(C)NC(C3C[C@@H](O)CN3C(=O)C(c3cc(OCCN4CC[C@H](NC(=O)c5cc6c(cc5CS(C)(=O)=O)-c5cn(C)c(=O)c7[nH]cc(c57)CN6c5ncc(F)cc5F)C4)no3)C(C)C)=NC2=O)cc1 (single isomer, unassigned) [Example 1002.1]	76.4	
	25.7	0.31	Cc1ncsc1-c1ccc(C2(C)NC(C3C[C@@H](O)CN3C(=O)C(c3cc(OCCN4CC[C@H](NC(=O)c5cc6c(cc5CS(C)(=O)=O)-c5cn(C)c(=O)c7[nH]cc(c57)CN6c5ncc(F)cc5F)C4)no3)C(C)C)=NC2=O)cc1 (single isomer, unassigned) [Example 1002.2]	90.3	EOL-1 Sinf (%) (BRD4): −65.0%
			Cc1ncsc1-c1ccc(C2(C)NC(C3C[C@@H](O)CN3C(=O)C(c3cc(OCCN4CC[C@H](NC(=O)c5cc6c(cc5CS(C)(=O)=O)-c5cn(C)c(=O)c7[nH]cc(c57)CN6c5ncc(F)cc5F)C4)no3)C(C)C)=NC2=O)cc1 (single isomer, unassigned) [Example 1002.3]	69.8	IC50 (MYC expression; Homo sapiens, MV4-11, 4 h): 123 nM
	80.4		Cc1ncsc1-c1ccc(C2(C)NC(C3C[C@@H](O)CN3C(=O)C(c3cc(OCCN4CC[C@H](NC(=O)c5cc6c(cc5CS(C)(=O)=O)-c5cn(C)c(=O)c7[nH]cc(c57)CN6c5ncc(F)cc5F)C4)no3)C(C)C)=NC2=O)cc1 (single isomer, unassigned) [Example 1002.4]	69.9	
		1.02	Cc1ncsc1-c1ccc([C@]2(C)NC([C@@H]3C[C@@H](O)CN3C(=O)C(NC(=O)CCCCCCCCCCNC(=O)c3cc4c(cc3CS(C)(=O)=O)-c3cn(C)c(=O)c5[nH]cc(c35)CN4c3ncc(F)cc3F)C(C)(C)C)=NO2)cc1 (single isomer, unassigned) [Example 1006.1]		EOL-1 Sinf (%) (BRD4): −92.6%
45.7			Cc1cc([C@H](C(=O)N2C[C@H](O)C[C@H]2C2=NOC(c3ccccc3)(c3ccccc3)N2)C(C)C)on1 [Example 132.2, (R)-1-((2S,4R)-2-(5,5-diphenyl-4,5-dihydro-1,2,4-oxadiazol-3-yl)-4-hydroxypyrrolidin-1-yl)-3-methyl-2-(3-methylisoxazol-5-yl)butan-1-one]		IC50 [1]: 39.4 µM; Kd [2]: 12.6 µM
93.6			Cc1cc(C(C(=O)N2C[C@H](O)CC2C2=NC(C)(C)C(C)(C)N2)C(C)C)on1 (stereo partly drawn) [Example 136.1, 1-((4R)-4-Hydroxy-2-(4,4,5,5-tetramethyl-4,5-dihydro-1H-imidazol-2-yl)pyrrolidin-1-yl)-3-methyl-2-(3-methylisoxazol-5-yl) butan-1-one]		IC50 [1]: 77.1 µM; Kd [2]: ≥ 150 µM
